From ChEMBL document CHEMBL5346912, “Discovery of 3,5-diaryl-1H-pyrazol-based ureas as potent RET inhibitors” (Eur J Med Chem, 2023)

Tests used:
[1] = target: Proto-oncogene tyrosine-protein kinase receptor Ret (Homo sapiens, UniProt P07949); test: Binding affinity to RET (unknown origin) assessed as dissociation constant in presence of ATP by FRET based Z'-Lyte assay
[2] = tested on: BaF3; test: Antiproliferative activity against mouse BaF3 cells expressing CCDC6-RET incubated for 72 hrs by CCK8 assay; format: functional, cell-based; conditions: BaF3, 72 h
[3] = tested on: BaF3; test: cells; conditions: Mus musculus, BaF3, 72 h
Description: Antiproliferative activity against mouse BaF3 cells incubated for 72 hrs by CCK8 assay

[4] = tested on: BaF3; test: Antiproliferative activity against mouse BaF3 cells expressing CCDC6-RET-G810C incubated for 72 hrs by CCK8 assay; format: functional, cell-based; conditions: BaF3, 72 h
[5] = tested on: BaF3; test: Antiproliferative activity against mouse BaF3 cells expressing CCDC6-RET-G810R incubated for 72 hrs by CCK8 assay; format: functional, cell-based; conditions: BaF3, 72 h
[6] = tested on: BaF3; test: Antiproliferative activity against mouse BaF3 cells expressing CCDC6-RET-V804M incubated for 72 hrs by CCK8 assay; format: functional, cell-based; conditions: BaF3, 72 h

Proto-oncogene tyrosine-protein kinase receptor Ret, sequence (P07949 whole entry): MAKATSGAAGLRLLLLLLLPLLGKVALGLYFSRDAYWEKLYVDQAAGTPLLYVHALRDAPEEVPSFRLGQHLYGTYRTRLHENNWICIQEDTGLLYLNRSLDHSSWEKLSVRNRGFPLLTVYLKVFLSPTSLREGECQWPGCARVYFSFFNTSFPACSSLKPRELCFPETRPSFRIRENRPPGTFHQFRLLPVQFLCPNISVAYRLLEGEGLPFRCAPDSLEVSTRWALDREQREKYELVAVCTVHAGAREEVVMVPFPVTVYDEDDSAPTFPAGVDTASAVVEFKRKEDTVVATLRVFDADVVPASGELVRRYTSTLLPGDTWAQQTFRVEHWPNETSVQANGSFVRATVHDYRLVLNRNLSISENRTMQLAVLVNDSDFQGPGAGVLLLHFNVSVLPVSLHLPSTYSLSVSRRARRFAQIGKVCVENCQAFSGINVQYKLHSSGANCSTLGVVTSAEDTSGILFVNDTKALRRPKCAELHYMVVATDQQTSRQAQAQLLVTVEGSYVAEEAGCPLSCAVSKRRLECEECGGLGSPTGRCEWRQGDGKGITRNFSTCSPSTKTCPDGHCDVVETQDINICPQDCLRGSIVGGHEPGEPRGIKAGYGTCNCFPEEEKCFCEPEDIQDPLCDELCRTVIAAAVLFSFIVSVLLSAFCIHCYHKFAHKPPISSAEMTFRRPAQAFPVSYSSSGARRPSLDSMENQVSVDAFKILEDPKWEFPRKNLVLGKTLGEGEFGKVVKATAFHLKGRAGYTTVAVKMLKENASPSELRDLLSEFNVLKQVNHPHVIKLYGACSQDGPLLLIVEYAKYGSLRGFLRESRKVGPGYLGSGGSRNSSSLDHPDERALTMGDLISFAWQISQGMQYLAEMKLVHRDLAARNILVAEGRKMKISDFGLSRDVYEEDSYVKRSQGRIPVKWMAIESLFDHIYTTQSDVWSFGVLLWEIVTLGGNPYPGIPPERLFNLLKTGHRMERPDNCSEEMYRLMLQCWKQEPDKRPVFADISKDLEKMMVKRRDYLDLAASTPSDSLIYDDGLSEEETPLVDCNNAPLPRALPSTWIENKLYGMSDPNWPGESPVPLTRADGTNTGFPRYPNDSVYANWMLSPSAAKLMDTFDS

Structure (SMILES)	Kd [1] [nM]	IC50 [2] [nM]	IC50 [3] [nM]	IC50 [4] [nM]	IC50 [5] [nM]	IC50 [6] [nM]
COc1cc(-c2cc(-c3ccc(NC(=O)Nc4cc(C(C)(C)C(F)(F)F)on4)cc3)n[nH]2)ccc1OCCN1CCOCC1	5.6	7.1	184	139	230	5.2
CN(C)CCCOc1ccc(-c2cc(-c3ccc(NC(=O)Nc4cc(C(C)(C)C)on4)cc3)n[nH]2)cc1	2	9.3	1180	131	532	10.5
CC(C)(C)c1cc(NC(=O)Nc2ccc(-c3cn(-c4ccc(OCCN5CCOCC5)cc4Cl)nn3)cc2)no1	26.5	585	1090	1830	1070	1180
COc1ccc(CN2[C@@H]3C[C@H]2CN(c2ccc(-c4cc(OCC(C)(C)O)cn5ncc(C#N)c45)cn2)C3)cn1		11.5	> 3000	1310	883	26
CC(C)(C)c1cc(NC(=O)Nc2ccc(-c3cc(-c4ccc(OCCN5CCOCC5)c(F)c4)[nH]n3)cc2)no1	9.7	10.6	> 10000	126	2250	14
COc1cc(-c2cc(-c3ccc(NC(=O)Nc4cc(C(C)(C)C(F)(F)F)on4)c(F)c3)n[nH]2)ccc1OCCN1CCOCC1	9	3	373	118	319	3.9
CN(C)CCOc1ccc(-c2cc(-c3ccc(NC(=O)Nc4cc(C(C)(C)C)on4)cc3)n[nH]2)cc1	3.2	7.9	1950	103	842	8.5
COc1cc(-c2cc(-c3ccc(NC(=O)Nc4cc(C(C)(C)C)on4)cc3)n[nH]2)ccc1OCCN1CCOCC1	6.1	12.1	442	131	417	10.4
CO[C@]1(C(=O)N[C@@H](C)c2ccc(-n3cc(F)cn3)nc2)CC[C@@H](c2nc(C)cc(Nc3cc(C)[nH]n3)n2)CC1		5	1040	114	358	4.1

Results, then the compound that gave them:

Kd [1] [nM]	IC50 [2] [nM]	IC50 [3] [nM]	IC50 [4] [nM]	IC50 [5] [nM]	IC50 [6] [nM]	Structure (SMILES)
18	35.6	> 10000	196	2020	33.9	Cc1cc(NC(=O)Nc2cc(C(C)(C)C)on2)ccc1-c1cc(-c2ccc(OCCN3CCOCC3)cc2)[nH]n1
6	226	1560	587	1020	188	CC(C)(C)c1cc(NC(=O)Nc2ccc(-c3cc(-c4cccc(OCCN5CCOCC5)c4)[nH]n3)cc2)no1
4.1	9.6	1080	166	570	12.4	CC(C)(C)c1cc(NC(=O)Nc2ccc(-c3cc(-c4ccc(OCCCN5CCOCC5)cc4)[nH]n3)cc2)no1
16	165	1050	410	1010	209	CC(C)(C)c1cc(NC(=O)Nc2ccc(-c3cc(-c4ccc(OCCN5CCOCC5)cc4)[nH]n3)c(Cl)c2)no1
8.3	17.9	> 10000	412	> 10000	18.1	CC(C)(C)c1cc(NC(=O)Nc2ccc(-c3cc(-c4ccc(OCCN5CCOCC5)cc4F)[nH]n3)cc2)no1
9.4	20.4	> 10000	159	> 10000	27.9	CC(C)(C)c1cc(NC(=O)Nc2ccc(-c3cc(-c4ccc(OCCN5CCOCC5)c(Cl)c4)[nH]n3)cc2)no1
11	36.2	> 10000	533	626	35.5	CC(C)(C)c1cc(NC(=O)Nc2ccc(-c3cc(-c4ccc(OCCN5CCOCC5)cc4Cl)[nH]n3)cc2)no1
